Substitutions are numbered along the chain they refer to. Where a SMILES comes first, the peptide text is derived from it.
How the values were obtained:
[1] = target: T1, hTAS1R2 + hTAS1R3 C801I^7.39 (Homo sapiens, UniProt Q7RTX0+Q8TE23, C801I); assay: Calcium response (FLIPR), hTAS1R3 mutant coexpressed with hTAS1R2; type: cell-based; conditions: for EC50 / Emax: variant C801I^7.39; for Emax: read-out: maximal signal (% of wt)
T1 construct: expressed in transfected cells; host or cells: HEK293T cells stably expressing G16Gust44
T1 sequence (Q7RTX0 21-852 C801I): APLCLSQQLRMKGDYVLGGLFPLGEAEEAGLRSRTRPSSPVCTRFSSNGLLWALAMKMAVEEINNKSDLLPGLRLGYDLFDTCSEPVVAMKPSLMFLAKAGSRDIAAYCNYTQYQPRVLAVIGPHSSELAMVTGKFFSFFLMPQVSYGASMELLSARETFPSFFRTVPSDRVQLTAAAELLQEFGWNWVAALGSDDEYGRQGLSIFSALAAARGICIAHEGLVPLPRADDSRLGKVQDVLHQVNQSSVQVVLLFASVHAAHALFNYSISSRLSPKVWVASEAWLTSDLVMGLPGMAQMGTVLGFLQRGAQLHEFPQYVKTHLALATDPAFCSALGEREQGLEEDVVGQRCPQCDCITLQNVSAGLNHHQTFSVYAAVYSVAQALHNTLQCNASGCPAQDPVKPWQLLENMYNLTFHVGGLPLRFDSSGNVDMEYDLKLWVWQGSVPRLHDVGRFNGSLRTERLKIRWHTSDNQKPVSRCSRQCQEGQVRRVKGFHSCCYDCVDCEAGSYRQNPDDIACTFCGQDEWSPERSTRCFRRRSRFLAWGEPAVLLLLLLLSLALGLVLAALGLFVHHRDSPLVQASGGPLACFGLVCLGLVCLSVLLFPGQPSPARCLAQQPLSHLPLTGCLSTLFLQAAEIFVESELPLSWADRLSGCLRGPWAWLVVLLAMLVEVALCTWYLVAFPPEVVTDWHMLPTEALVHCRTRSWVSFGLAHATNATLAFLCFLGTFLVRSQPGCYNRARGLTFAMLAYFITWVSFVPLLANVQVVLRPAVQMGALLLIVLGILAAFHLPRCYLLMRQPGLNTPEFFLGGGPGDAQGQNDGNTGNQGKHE
T1 sequence (Q8TE23 20-839): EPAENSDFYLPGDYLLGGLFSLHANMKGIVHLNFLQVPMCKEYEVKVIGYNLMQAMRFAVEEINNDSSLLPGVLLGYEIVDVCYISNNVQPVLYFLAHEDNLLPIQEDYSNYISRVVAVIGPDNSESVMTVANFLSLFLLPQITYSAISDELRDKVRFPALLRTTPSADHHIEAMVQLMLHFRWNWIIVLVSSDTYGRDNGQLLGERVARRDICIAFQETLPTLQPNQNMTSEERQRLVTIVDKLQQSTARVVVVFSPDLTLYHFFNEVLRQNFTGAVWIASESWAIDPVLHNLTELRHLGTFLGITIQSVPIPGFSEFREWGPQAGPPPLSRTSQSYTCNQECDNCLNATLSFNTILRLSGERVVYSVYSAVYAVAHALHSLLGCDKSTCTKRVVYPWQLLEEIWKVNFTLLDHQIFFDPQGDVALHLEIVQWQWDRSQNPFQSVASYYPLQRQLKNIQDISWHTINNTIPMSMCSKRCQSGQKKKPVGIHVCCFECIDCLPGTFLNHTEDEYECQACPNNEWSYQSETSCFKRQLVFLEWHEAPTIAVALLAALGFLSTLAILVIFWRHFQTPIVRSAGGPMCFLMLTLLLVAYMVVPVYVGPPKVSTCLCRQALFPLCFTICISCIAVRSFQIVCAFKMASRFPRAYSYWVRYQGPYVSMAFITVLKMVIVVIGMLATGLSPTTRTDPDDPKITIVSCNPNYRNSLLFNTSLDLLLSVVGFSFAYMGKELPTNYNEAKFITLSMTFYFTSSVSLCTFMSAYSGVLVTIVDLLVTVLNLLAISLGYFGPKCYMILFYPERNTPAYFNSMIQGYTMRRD
Protocol: (§1) The cDNAs for TAS1Rs tagged at the C-terminus with the herpes simplex virus glycoprotein D (HSV) were transiently transfected into HEK293T cells stably expressing the chimeric G-protein subunit G16Gust44 [44] using Lipofectamine 2000 (Invitrogen, Carlsbad, CA) according to the manufacturer's protocol. 3–4 hours after transfection, DMEM was replaced by low-glucose DMEM supplemented with GlutaMAX and 10% dialyzed FBS (Invitrogen, Carlsbad, CA). 24 h post transfection, cells were loaded for 1 h with the calcium sensitive dye Fluo4-AM (2 μg/ml in DMEM, Molecular Probes, Carlsbad, CA). […] We monitored calcium mobilization following receptor stimulation with sweet tastants by an automated fluorometric imaging plate reader (FLIPR, Molecular Devices, Sunnyvale, CA). Compounds used as stimuli (Sigma-Aldrich, St. Louis, MO; Merck, Whitehouse Station, NJ) were dissolved in C1 solution. All data were collected from at least three independent experiments carried out in duplicate. The obtained calcium signals were corrected for the response of mock transfected cells and normalized to the fluorescence of cells prior to the application of the stimulus using ΔF/F = (F-F0)/F0.

[2] = target: T2, hTAS1R2 + hTAS1R3 C801L^7.39 (Homo sapiens, UniProt Q7RTX0+Q8TE23, C801L); assay: as above; type: cell-based; conditions: for receptor activation: mutant C801L^7.39; for EC50: variant C801L^7.39, n.f. = no response to any tested sweetener
T2 construct: expressed in transfected cells; host or cells: HEK293T cells stably expressing G16Gust44
T2 sequence (Q7RTX0 21-852 C801L): T1 sequence (Q7RTX0 21-852 C801I) with I781L
T2 sequence (Q8TE23 20-839): T1 sequence (Q8TE23 20-839)
Protocol: as §1

EC50 [1] | Emax [1] | receptor activation [2] | EC50 [2] | SMILES | receptor activation ([1]; mutant C801I^7.39, any tested concentration)
1.2 ± 0.5 mM | 50 ± 9% | could not be activated | n.f. | COC(=O)[C@H](Cc1ccccc1)NC(=O)[C@@H](N)CC(=O)O [aspartame] (HELM PEPTIDE1{D.F.[CO[*:1]]}$$$$V2.0) | –
– | – | could not be activated | – | CC1=CC(=O)NS(=O)(=O)O1 [acesulfame K] | –
1.6 ± 0.7 mM | 70 ± 13% | could not be activated | n.f. | COc1ccc(CCC(=O)c2c(O)cc(O[C@@H]3O[C@H](CO)[C@@H](O)[C@H](O)[C@H]3O[C@@H]3O[C@@H](C)[C@H](O)[C@@H](O)[C@H]3O)cc2O)cc1O [NHDC, neohesperidin dihydrochalcone] | –
– | – | could not be activated | – | O=S(=O)(O)NC1CCCCC1 [cyclamate] | could not be activated at any tested concentration
